Assay results from US20250249001A1, “METHODS OF TREATING SUBSTANCE USE DISORDER WITH 4-(3-CYANOPHENYL)-6-PYRIDINYLPYRIMIDINE MGLU5 NEGATIVE ALLOSTERIC MODULATORS” (Tempero Bio, Inc., priority 2022, published 2025).
Where two headings read alike, the source gives them in different places.

Legend:
[1] = test system: oxycodone reinstatement in rats; test: Yohimbine-induced reinstatement of oxycodone self-administration; format: in vivo, Sprague-Dawley rats; details: 3 mg/kg thirty minutes before yohimbine 2 mg/kg; Ps<0.001
Description: Evaluation of Compound 1 on Oxycodone Reinstatement. After completion of testing rats were re-trained with oxycodone for one week to ensure stable baseline. Rats then underwent a 6-day extinction where only saline infusion occurred when active lever was pressed. Meanwhile, the rats were divided into 3 groups: All rats received one injection of alpha-2 adrenergic antagonist yohimbine (2 mg/kg) with 0 min pretreatment (rats were placed into the training box immediately). Thirty minutes before yohimbine treatment, one group of rats received saline, another group received MTEP 3 mg/kg injection, and the 3rd group received Compound 1 (3 mg/kg). Yohimbine-induced reinstatement was re-tested two more times in the same rats 3 days and 6 days after the first test, under continuous extinction procedure.
Statistical Analysis. Prism 9.40 software package Version 9 was used for statistical analysis and graphing. The number of active lever responses were recorded during each session and compared between treatment groups. A one-way mixed-effects model (REML) of ANOVA followed by Dunnett's post hoc tests were used to analyze efficacy of Compound 1 and MTEP on oxycodone self-administration in stages I (The repeated measure ANOVA was not totally applicable due to a few outlier data points, which are removed), and one-way mixed-effects model (REML) of ANOVA followed by Tukey's post hoc tests were used in Stage II. An effect was considered significant if P<0.05. Data were represented as the mean and standard error to the mean (s.e.m). Statistical outliers which exceeded mean +/− (2× standard deviation) of the group were removed from the analysis.

[2] = test system: cocaine-induced CPP in male SD rats; format: in vivo, Sprague Dawley rats; details: for time difference (drug-paired vs saline-paired) vs Cocaine-Saline group / time spent in the drug-paired compartment vs Cocaine-Saline group: day 10
Description: Animals: Male Sprague Dawley rats (Envigo, IN, 275-299 g) were group housed upon arrival (2 per cage). All rats were examined and handled to assure adequate health and suitability. During the study, a 12/12 light/dark cycle was maintained (lights switched on at 7:00 am). The room temperature was maintained between […] and 23° C. with a relative humidity maintained around 50%. Chow (LabDiet #5001) and water were provided ad libitum for the duration of the study. The test was performed during the animal's light cycle phase.
Cocaine (10 mg/kg) was dissolved in saline and injected IP at a dose volume of 1 ml/kg. Cocaine was administered on training days 3, 5, 7 and 9 immediately prior to training.
3-((2-Methyl-4-thiazolyl)ethynyl)pyridine (MTEP, 3 mg/kg), was dissolved in saline and injected IP on day 10 (bias test) at a dose volume of 1 ml/kg 30 minutes prior to testing.
Compound 1 (1, 3 and 10 mg/kg) was formulated in 10% Solutol HS15 and 90% (10% aqueous 2-hydroxypropyl-β-cyclodextrin) and injected IP on day 10 (bias test) at a dose volume of 2 ml/kg. Compound 1 was administered 30 minutes prior to testing.
The chamber used in this study contained two compartments [(60 cm (L)×40 cm (W)×24 cm (H)]. The compartment used for each animal and drug pairing was assigned and counterbalanced in advance and adjusted as necessary in the rebalancing procedure after day 1 (see details below). Within the chamber, visual and physical features were used to create the two distinct compartments. For example, one compartment may have a flat plastic floor with white stripes and the other may have a textured floor and black stripes. The chambers were cleaned with 70% alcohol in between runs.
Testing sessions were recorded on days 1 and 10 to determine time spent (seconds) in each chamber.
Day 1 Pre-conditioning/Habituation: Animals are allowed to explore the entire testing chamber freely for 20 min. Animals that display a strong preference for one compartment (>75% time spent in one compartment) are excluded.
Rebalancing Procedure: Animals are rebalanced following day 1 scoring if the difference between groups for time spent in one compartment is greater than 15%.
Days 2-9 Conditioning: All animals are treated with saline on days 2, 4, 6, and 8 and with cocaine or saline on days 3, 5, 7, and 9 depending on their assigned group. Animals are confined to their assigned compartment (saline- or cocaine-paired compartment) for 20 minutes following dosing.
Day 10 Post-conditioning bias test: Animals are dosed once with either saline, MTEP or Compound 1 (1, 3 and 10 mg/kg) according to their assigned. Following dosing, animals are allowed to explore the testing chamber freely for 20 minutes with the compartment dividing door open. Their activity exploring the chamber is recorded for analysis.
Statistical Analysis: Statistical analysis was conducted using GraphPad Prism 9. Scorers blinded to the treatment groups scored the amount of time each animal spent exploring each chamber on days 1 and 10. For bias test data, a one-way analysis of variance (ANOVA) followed by Dunnett's post hoc test was used. Significance was set at p<0.05 and values exceeding two standard deviations of the mean were considered statistical outliers and were excluded from the analysis. Additionally, if an animal spent >85% or <15% of the time in one compartment even without any obvious signs of sedation or locomotor dysfunction, they were excluded from the analysis.

[3] = Phase 1 multiple ascending dose study, exposure; format: in vivo, healthy subjects; details: 100 mg/day (50 mg twice per day) oral; study suspended at day 9 after dosage of 6 patients
Description: Example 5 presents the protocol for a suspended, multiple ascending dose (MAD) study to evaluate the safety, tolerability, and pharmacokinetics (PK) of Compound 1 in healthy subjects. In the following paragraphs, Example 5 is described in the future tense for sake of brevity; the study was suspended at day 9 after dosage of 6 patients. […] Example 6 presents the protocol for a planned, amended Phase 1 MAD study.
Study Objectives and Endpoints—See Table 12 for Study Objectives and Endpoints. There will be up to 4 dose cohorts, and within each cohort subjects will be randomly assigned to receive either active drug or placebo. Study subjects will be administered active drug or placebo twice daily for 14 days (note: only the AM dose is administered on Day 14).
Each subject will be randomly assigned to 1 of the following cohorts: Cohort 1: Group 1 (6 subjects): 50 mg of Compound 1 twice daily (bid); Group 2 (2 subjects): placebo (matching Compound 1) bid. Cohort 2: Group 3 (6 subjects): 100 mg of Compound 1 bid; Group 4 (2 subjects): placebo (matching Compound 1) bid. Cohort 3: Group 5 (6 subjects): 150 mg of Compound 1 bid; Group 6 (2 subjects): placebo (matching Compound 1) bid.

[4] = MTEP 3 mg/kg IP 30 minutes prior to day 10 bias test
[5] = 1 mg/kg IP 30 minutes prior to day 10 bias test

Cc1nc(C#Cc2cccnc2)cs1 [MTEP, 3-((2-Methyl-4-thiazolyl)ethynyl)pyridine]
yohimbine-induced oxycodone reinstatement vs Vehicle-Yohimbine group [1]: attenuated yohimbine-induced oxycodone reinstatement | time difference (drug-paired vs saline-paired) vs Cocaine-Saline group ([2]; 3 mg/kg IP, p<0.05): significantly lower time difference | time spent in the drug-paired compartment vs Cocaine-Saline group ([2]; 3 mg/kg IP, p<0.05): significantly less time in the drug-paired compartment | Percent time in compound-paired compartment, Mean Diff., Cocaine - Saline vs. Cocaine - MTEP [2, 4]: 18.73% | Preference Scores, Mean Diff., Cocaine - Saline vs. Cocaine - MTEP [2, 4]: 449.6 s

N#Cc1cc(Cl)cc(-c2cc(-c3ccc(F)cn3)ncn2)c1 [Compound 1, 3-chloro-5-[6-(5-fluoropyridin-2-yl)pyrimidin-4-yl]benzonitrile]
yohimbine-induced oxycodone reinstatement vs Vehicle-Yohimbine group [1]: attenuated yohimbine-induced oxycodone reinstatement | Percent time in compound-paired compartment, Mean Diff., Cocaine - Saline vs. Cocaine - Compound 1 (1 mg/kg) [2, 5]: 19.16% | Preference Scores, Mean Diff., Cocaine - Saline vs. Cocaine - Compound 1 (1 mg/kg) [2, 5]: 459.9 s | time difference (drug-paired vs saline-paired) vs Cocaine-Saline group ([2]; 1 mg/kg IP, p<0.01): significantly lower time difference | time spent in the drug-paired compartment vs Cocaine-Saline group ([2]; 1 mg/kg IP, p<0.01): significantly less time in the drug-paired compartment | exposure in healthy subjects [3]: greater than expected exposure
